Read-outs that look alike come from different tables or passages of the source.
How the values were obtained:
[1] = biological target: T1, KMT9 (Homo sapiens, UniProt Q9Y5N5); assay: Microscale thermophoresis (MST) binding assay
T1 sequence (Q9Y5N5 1-214): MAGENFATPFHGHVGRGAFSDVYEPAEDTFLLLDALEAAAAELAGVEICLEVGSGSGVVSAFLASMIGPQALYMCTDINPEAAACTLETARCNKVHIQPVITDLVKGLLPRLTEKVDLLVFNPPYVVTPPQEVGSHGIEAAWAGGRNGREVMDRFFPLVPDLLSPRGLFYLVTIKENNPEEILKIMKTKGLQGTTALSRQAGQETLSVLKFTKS
T1 sequence (Q9UI30 1-125 partner): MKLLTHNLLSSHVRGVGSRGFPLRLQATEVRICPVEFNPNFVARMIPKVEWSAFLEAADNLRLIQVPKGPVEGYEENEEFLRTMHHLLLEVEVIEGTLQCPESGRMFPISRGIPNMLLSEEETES
Procedure: To determine the binding affinity of the compound and KMT9, microscale thermophoresis (MST) analysis was performed with a NanoTemper Monolith NT.115 instrument (NanoTemper Technologies GmbH). KMT9 was labeled with a RED-Tris-NTA labeling kit (NanoTemper Technologies GmbH) based on the manufacturer’s instructions. Buffer including 25 mM HEPES (pH 7.5), 100 mM NaCl, 1 mM DTT and 0.05% Tween was used for the reaction buffer. Varying concentrations of compounds were titrated against His-tag labeled KMT9 proteins (20 nM). Samples were loaded into standard Capillaries (NanoTemper Technologies GmbH) and MST measurements were performed using 40% MST power and 100% LED power. For each set of binding experiments, MST measurement was carried out with Binding Affinity module in MO. Control program under Nano-RED excitation. Data sets were processed with the MO.Affinity Analysis software (NanoTemper Technologies GmbH).

[2] = biological target: T1, KMT9; assay: Thermal shift assay (SyproOrange); format: binding; conditions: read-out: ΔTm
Procedure: The assay was carried out in 96-well Hard-Shell PCR plates (Bio-Rad Laboratories Inc.). […] Final assay concentrations were set to 500 μM of compound 8, 2 μM KMT9 and 5× SO. One μL of 20× compound, 4 μL of assay buffer, 10 μL of 2× KMT9 and 5 μL of 4× SO were pipetted. For the no-compound control, 20× inhibitor stock was replaced by DMSO. The final volume was 20 μL. The plate was spun down at 700 rpm for 1 min using a Hettich UNIVERSAL 320 centrifuge and incubated at 25 °C, shaking at 600 rpm. After incubation, the plate was spun down for 1 min at 700 rpm and measurement was conducted using a CFX96 Touch Real-Time PCR Detection System (Bio-Rad Laboratories Inc.). The plate was equilibrated at 20 °C for 4 min and then heated stepwise at a rate of 1 °C per 15 s until 95 °C. After every step, fluorescence was measured in FRET mode. Calculation of melting points was conducted by a Boltzman sigmoidal model using GraphPad Prism 7.0.

[3] = biological target: T1, KMT9; assay: KMT9 methyltransferase inhibition assay (3H-SAM, ETF1 substrate)
Procedure: The assay was carried out in 0.5 mL Eppendorf tubes in duplicates. Assay buffer consisted of 50 mM BTP, 1 mM MgCl2, 1 mM DTT and 0,01% Triton-X100 at a pH of 8.5 (adjusted using 1 M HCl and 1 M NaOH). 20X inhibitor stock (in DMSO), 2× enzyme stock and 4× substrate mix (both in assay buffer) were prepared. The substrate mix consisted of Tritium-labeled S-adenosylmethionine (3H-SAM), S-adenosylmethionine (SAM) and eukaryotic peptide chain release factor subunit1 (, residues 140–275) (ETF1). Final assay concentrations were set to 25 nM KMT9, 0.3 μM 3H-SAM, 0.7 μM SAM and 5 μM ETF1. […] Five μL of 4× substrate mix was added to initiate the reaction. The final reaction volume was 20 μL. For the positive control, the compound was replaced by DMSO; for the negative control, the compound was replaced by DMSO and KMT9 was replaced by assay buffer. The reaction mix was incubated in an Eppendorf thermomixer comfort at 30 °C for 2 h, shaking at 300 rpm. The reaction was quenched using 5 μL 50% trichloroacetic acid (TCA) and incubated at 25 °C for 5 min. Twenty-two μL of the mixture was transferred into 96-well MultiScreenHTS FB filter plates (Merck KGaA, Darmstadt, Germany) and washed four times with 10% TCA and two times with 100% ethanol. The plate was dried overnight, the filters were transferred into individual 6 mL Pony Vials (PerkinElmer Inc., Waltham, MA, USA) and incubated in 3 mL of Ultima Gold scintillation cocktail (PerkinElmer Inc., Waltham, MA, USA) for 30 min. The scintillation signal was measured for 3× 1 min using TriCarb 2910 TR (PerkinElmer) scintillation counter in 3H CPM mode (LL: 0, UL: 18.6).
Inhibition was calculated using the following formula: Inhibition[%]=(1−xc−xpos/xpos−xneg)×100
With xc: signal of compound, xpos: mean signal of positive control, xneg: mean signal of negative control. Data fitting was carried out by GraphPad 7.0 using nonlinear fit ([Inhibitor] vs response – variable slope (four parameters)).

[4] = MST, binding to KMT9, read-out: Kd
[5] = thermal shift, 2 μM KMT9, 500 μM compound

Row | Structure (SMILES) | Kd [1, 4] | ΔTm at 500 µM [2] | IC50 [3] | Kd [1] | Reduction of potency compared to compound 2d ([1]; vs compound 2d) | ΔTm at 500 µM [2, 5] | Decrease of binding affinity compared to compound 7b ([1]; Kd ratio vs compound 7b)
1 | Nc1ncnc2c1ncn2[C@@H]1O[C@H](CSCC[C@H](N)C(=O)O)[C@@H](O)[C@H]1O [SAH, S-adenosyl-L-homocysteine, reference compound] | 10.9 µM |  |  |  |  |  | 
2 | NCCCN(C[C@H]1C=CCN1)C[C@H]1O[C@@H](n2cnc3c(N)ncnc32)[C@H](O)[C@@H]1O [compound 4f, (2R,3R,4S,5R)-2-(6-Amino-9H-purin-9-yl)-5-(((3-aminopropyl)(((R)-2,5-dihydro-1H-pyrrol-2-yl)methyl)amino)methyl)tetrahydrofuran-3,4-diol] |  | -0.52 °C | 253 µM | > 500 µM |  |  | 
3 | Nc1ncnc2c1ncn2[C@@H]1O[C@H](CN(CCCNCc2ccccc2)CC[C@H](N)C(=O)O)[C@@H](O)[C@H]1O [compound 5a, (S)-2-Amino-4-((((2R,3S,4R,5R)-5-(6-amino-9H-purin-9-yl)-3,4-dihydroxytetrahydrofuran-2-yl)methyl)(3-(benzylamino)propyl)amino)butanoic acid] |  | 19.6 °C | 0.1 µM | 0.04 µM |  |  | 
4 | Nc1ncnc2c1ncn2[C@@H]1O[C@H](CN(CC[C@H](N)C(=O)O)CC[C@H](N)C(=O)O)[C@@H](O)[C@H]1O [compound 1, (2S,2’S)-4,4’-((((2R,3S,4R,5R)-5-(6-Amino-9H-purin-9-yl)-3,4-dihydroxytetrahydrofuran-2-yl)methyl)azanediyl)bis(2-aminobutanoic Acid)] | 6.8 µM |  |  |  |  |  | 
5 | Nc1ncnc2c1ncn2[C@@H]1O[C@H](CN(CCCNCCc2ccccc2)CC[C@H](N)C(=O)O)[C@@H](O)[C@H]1O [compound 5b, (S)-2-Amino-4-((((2R,3S,4R,5R)-5-(6-amino-9H-purin-9-yl)-3,4-dihydroxytetrahydrofuran-2-Yyl)methyl)(3-(phenethylamino)propyl)amino)butanoic acid] |  | 20.9 °C | 0.034 µM | 0.01 µM |  |  | 
6 | NCCCN(CCC(N)C(F)F)C[C@H]1O[C@@H](n2cnc3c(N)ncnc32)[C@H](O)[C@@H]1O (stereo partly drawn) [compound 4b, (2R,3S,4R,5R)-2-(((3-Amino-4,4-difluorobutyl)(3-aminopropyl)amino)methyl)-5-(6-amino-9H-purin-9-yl)tetrahydrofuran-3,4-diol] |  | 2.86 °C | 200 µM | 100 µM |  |  | 
7 | CN(C)CCCN(CC[C@H](N)C(=O)O)C[C@H]1O[C@@H](n2cnc3c(N)ncnc32)[C@H](O)[C@@H]1O [compound 3b, reference compound] | 1 µM | 9.55 °C | 6 µM |  | ~100 fold |  | 
8 | CNc1ncnc2c1ccn2[C@@H]1C[C@H](CN(CCCNCCc2ccc(Oc3ccccc3)cc2)CC[C@H](N)C(=O)O)[C@@H](O)[C@H]1O [compound 7a, (S)-2-Amino-4-((((1R,2R,3S,4R)-2,3-dihydroxy-4-(4-(methylamino)-7H-pyrrolo[2,3-d]pyrimidin-7-yl)cyclopentyl)methyl)(3-((4-phenoxyphenethyl)amino)propyl)amino) Butanoic acid] | 0.07 µM |  | 0.6 µM |  |  | 17.5 °C | 
9 | NCCCN(CCC(N)C(F)(F)F)C[C@H]1O[C@@H](n2cnc3c(N)ncnc32)[C@H](O)[C@@H]1O (stereo partly drawn) [compound 4c, (2R,3S,4R,5R)-2-(((3-Amino-4,4,4-trifluorobutyl)(3-aminopropyl)amino)methyl)-5-(6-amino-9H-purin-9-yl)tetrahydrofuran-3,4-diol] | > 500 µM |  | 500 µM |  |  | 3.43 °C | 
10 | Nc1ncnc2c1ncn2[C@@H]1O[C@H](CN(CCCNCCCc2ccccc2)CC[C@H](N)C(=O)O)[C@@H](O)[C@H]1O [compound 5c, (S)-2-Amino-4-((((2R,3S,4R,5R)-5-(6-amino-9H-purin-9-yl)-3,4-dihydroxytetrahydro-furan-2-yl)methyl)(3-((3-phenylpropyl)amino)propyl)amino)butanoic acid] |  | 21.3 °C | 0.064 µM | 0.02 µM |  |  | 
11 | C[C@@H](CN(CCCN)C[C@H]1O[C@@H](n2cnc3c(N)ncnc32)[C@H](O)[C@@H]1O)N1CCC(O)CC1 [compound 4e, (2R,3R,4S,5R)-2-(6-Amino-9H-purin-9-yl)-5-(((3-aminopropyl)((s)-2-(4-hydroxypiperidin-1-yl)propyl)amino)methyl)tetrahydrofuran-3,4-diol] | 50 µM | 2.78 °C | > 500 µM |  |  |  | 
12 | CNc1ncnc2c1ccn2C1CC(CN(CCCOCCc2ccc(Oc3ccc(Cl)cc3)c(F)c2)CCC(N)C(=O)O)C(O)C1O [compound 7b-N, (S)-2-Amino-4-((3-(4-(4-chlorophenoxy)-3-fluorophenethoxy)propyl)(((1R,2R,3S,4R)-2,3-dihydroxy-4-(4-(methylamino)-7H-pyrrolo[2,3-d]pyrimidin-7-yl)cyclopentyl)methyl)amino)butanoic Acid] | ~56 µM |  |  |  |  |  | more than 1000 fold
13 | Nc1ncnc2c1ncn2[C@@H]1O[C@H](CN(CC[C@H](N)C(=O)O)CC[C@H](N)c2ccccc2)[C@@H](O)[C@H]1O [compound 2a] |  | 10.6 °C | 3 µM | 15 µM |  |  | 
